US9624224B2, “Inhibitors of Bruton's tyrosine kinase” (Pharmacyclics LLC, priority 2013, dated 2017)

Key:
Format in all cases: biochemical
[1] = target: T1, BTK (Homo sapiens, UniProt Q06187); test: Btk in vitro inhibitory activity (TR-FRET, mobility shift or radiometric filter binding kinase assay); conditions: determined using one of the methods outlined in Example 47a, 47b, and 47c
T1 construct: purified from insect cells as a full-length construct containing a N-terminal 6×-His tag; His6 (N); made in house; host or cells: insect cells (baculovirus, Sf21)
Experimental: (§1) Btk kinase activity is determined using a time-resolved fluorescence resonance energy transfer (TR-FRET) methodology. Measurements are performed in a reaction volume of 50 μL using 96-well assay plates. […] The reaction is quenched by the addition of 1.2 equivalents of EDTA (relative to divalent cation) in 25 μL of 1× Lance buffer (Perkin-Elmer). Streptavidin-APC (Perkin-Elmer) and Eu-labeled p-Tyr100 antibody (Perkin-Elmer) in 1× Lance buffer are added in a 25 μL volume to give final concentrations of 100 nM and 2.5 nM, respectively, and the mixture is allowed to incubate for one hour. The TR-FRET signal is measured on a multimode plate reader with an excitation wavelength (λEx) of 330 nm and detection wavelengths (λEm) of 615 and 665 nm. Activity is determined by the ratio of the fluorescence at 665 nm to that at 615 nm. For each compound, enzyme activity is measured at various concentrations of compound. Negative control reactions are performed in the absence of inhibitor in replicates of six, and two no-enzyme controls are used to determine baseline fluorescence levels. Inhibition constants, Ki(app), ware obtained using the program BatchKi (Kuzmic et al. (2000), Anal. Biochem. 286:45-50). IC50s are obtained according to the equation: IC50={Ki(app)/(1+[ATP]/Km^ATP)}+[E]total/2;
(§2) For all kinases, [ATP]=Km^ATP, [Btk]total=0.5 nM and [Lck]total=6 nM.
Kinase activity is measured in vitro using electrophoretic mobility shift assay. The kinase reactions are assembled in a total volume of 25 μL in 384 well plates. […] The reaction is incubated for one hour and is quenched by the addition of 45 μL of termination buffer (100 mM HEPES, pH7.5, 0.01% Triton X-100, 30 mM EDTA). The terminated reactions are analyzed using 12 channel LabChip® 3000 microfluidic detection instrument (Caliper Life Sciences). The enzymatic phosphorylation of the peptide results in a change in net charge, enabling electrophoretic separation of product from substrate peptide. As substrate and product peptides are separated, two peaks of fluorescence are observed. Change in the relative fluorescence intensity of the substrate and product peaks is the parameter measured, reflecting enzyme activity. In the presence of an inhibitor, the ratio between product and substrate is altered: the signal of the product decreases, while the signal of the substrate increases.
Activity in each sample is determined as the product to sum ratio (PSR): P/(S+P), where P is the peak height of the product peptide and S is the peak height of the substrate peptide. For each compound, enzyme activity is measured at various concentrations (12 concentrations of compound spaced by 3× dilution intervals). Negative control samples (0%-inhibition in the absence of inhibitor) and positive control samples (100%-inhibition, in the presence of 20 mM EDTA) are assembled in replicates of four and are used to calculate %-inhibition values for each inhibitor at each concentration. Percent inhibition (Pinh) is determined using following equation: Pinh=(PSR0%−PSRinh)/(PSR0%−PSR100%)*100,
where PSRmh is the product sum ratio in the presence of inhibitor, PSR0% is the average product sum ration in the absence of inhibitor and PSR100% is the average product sum ratio in 100%-inhibition control samples;
The IC50 values of inhibitors are determined by 4 parameter sigmoidal dose-response model fitting of the inhibition curves (Pinh versus inhibitor concentration) using XLfit 4 software.
Human Btk kinase (Genbank accession # NP_000052) was purified from insect cells as a full-length construct containing a N-terminal 6×-His tag. Btk kinase activity was determined using a radiometric filter binding assay. Measurements are performed in a low μL reaction volume 384-well assay plates. […]

[2] = target: Lck (Homo sapiens, UniProt P06239); test: Lck kinase inhibition (in vitro kinase assay)
Experimental: as §1, §2

[3] = target: EGFR (Homo sapiens, UniProt P00533); test: EGFR kinase inhibition (in vitro kinase assay)
Chain of EGFR (P00533 25-1210, species assumed): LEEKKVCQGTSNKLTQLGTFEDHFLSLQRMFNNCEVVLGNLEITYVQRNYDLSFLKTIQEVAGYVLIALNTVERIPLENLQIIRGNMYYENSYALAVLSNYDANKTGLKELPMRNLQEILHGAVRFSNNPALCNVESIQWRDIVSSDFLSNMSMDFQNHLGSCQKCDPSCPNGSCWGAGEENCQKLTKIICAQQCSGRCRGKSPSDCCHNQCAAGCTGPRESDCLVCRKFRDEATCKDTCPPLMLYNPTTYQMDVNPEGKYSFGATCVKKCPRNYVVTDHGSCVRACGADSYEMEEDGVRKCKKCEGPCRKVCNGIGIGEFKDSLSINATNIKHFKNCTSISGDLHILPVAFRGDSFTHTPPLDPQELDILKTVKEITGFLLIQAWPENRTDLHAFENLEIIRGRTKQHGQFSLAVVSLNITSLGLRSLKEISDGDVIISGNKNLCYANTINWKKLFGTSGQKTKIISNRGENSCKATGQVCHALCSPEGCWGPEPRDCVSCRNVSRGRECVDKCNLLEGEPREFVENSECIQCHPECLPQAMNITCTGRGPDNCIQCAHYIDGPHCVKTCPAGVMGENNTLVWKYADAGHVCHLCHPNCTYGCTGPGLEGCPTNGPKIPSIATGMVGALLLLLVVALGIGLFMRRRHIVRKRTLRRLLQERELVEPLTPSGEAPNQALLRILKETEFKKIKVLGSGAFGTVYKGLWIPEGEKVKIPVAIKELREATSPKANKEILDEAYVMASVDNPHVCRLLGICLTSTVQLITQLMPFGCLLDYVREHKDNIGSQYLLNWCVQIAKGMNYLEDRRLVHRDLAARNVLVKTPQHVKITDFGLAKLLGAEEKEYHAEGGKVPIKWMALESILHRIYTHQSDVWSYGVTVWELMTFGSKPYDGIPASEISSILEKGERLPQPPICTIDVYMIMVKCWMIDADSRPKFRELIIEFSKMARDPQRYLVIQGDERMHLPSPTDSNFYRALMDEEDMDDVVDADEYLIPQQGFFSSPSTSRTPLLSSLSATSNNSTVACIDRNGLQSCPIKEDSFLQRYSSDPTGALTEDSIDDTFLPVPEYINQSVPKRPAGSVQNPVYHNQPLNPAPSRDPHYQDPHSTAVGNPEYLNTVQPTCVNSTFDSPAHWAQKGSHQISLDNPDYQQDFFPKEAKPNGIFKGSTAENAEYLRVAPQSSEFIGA

T1 sequence (Q06187 whole entry): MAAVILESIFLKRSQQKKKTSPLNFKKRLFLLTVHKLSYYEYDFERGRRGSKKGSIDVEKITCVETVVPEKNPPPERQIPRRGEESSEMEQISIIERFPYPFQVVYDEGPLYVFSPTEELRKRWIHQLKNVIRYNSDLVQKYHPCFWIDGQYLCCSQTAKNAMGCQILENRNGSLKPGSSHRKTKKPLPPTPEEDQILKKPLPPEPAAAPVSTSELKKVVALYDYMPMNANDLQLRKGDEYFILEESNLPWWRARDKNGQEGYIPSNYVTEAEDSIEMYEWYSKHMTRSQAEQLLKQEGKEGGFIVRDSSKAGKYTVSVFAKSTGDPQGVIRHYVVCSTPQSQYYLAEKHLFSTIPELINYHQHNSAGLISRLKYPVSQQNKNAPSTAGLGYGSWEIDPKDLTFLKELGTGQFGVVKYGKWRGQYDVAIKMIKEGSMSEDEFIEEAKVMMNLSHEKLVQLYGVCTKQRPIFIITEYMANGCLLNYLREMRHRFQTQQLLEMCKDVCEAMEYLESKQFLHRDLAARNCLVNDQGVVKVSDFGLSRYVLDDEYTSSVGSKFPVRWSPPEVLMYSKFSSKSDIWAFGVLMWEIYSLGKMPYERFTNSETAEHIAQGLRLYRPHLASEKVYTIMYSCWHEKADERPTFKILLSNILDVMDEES
Chain of Lck (P06239 whole entry, species assumed): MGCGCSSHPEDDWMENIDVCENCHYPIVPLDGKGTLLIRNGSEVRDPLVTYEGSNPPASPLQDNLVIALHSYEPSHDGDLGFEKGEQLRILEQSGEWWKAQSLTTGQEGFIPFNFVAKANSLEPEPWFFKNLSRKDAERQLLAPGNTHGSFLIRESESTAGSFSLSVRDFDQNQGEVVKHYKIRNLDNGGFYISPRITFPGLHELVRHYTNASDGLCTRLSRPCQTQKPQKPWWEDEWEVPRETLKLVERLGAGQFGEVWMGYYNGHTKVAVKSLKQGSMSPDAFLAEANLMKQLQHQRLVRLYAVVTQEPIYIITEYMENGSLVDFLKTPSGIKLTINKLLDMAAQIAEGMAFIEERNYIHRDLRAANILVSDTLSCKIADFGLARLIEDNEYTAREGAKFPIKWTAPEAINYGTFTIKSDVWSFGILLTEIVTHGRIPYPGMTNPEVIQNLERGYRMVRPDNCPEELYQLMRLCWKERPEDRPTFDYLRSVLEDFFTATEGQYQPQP

COc1cc(-c2nn([C@@H]3CCN(C(=O)/C=C/CN(C)C4CC4)C3)c3ncnc(N)c23)ccc1C(=O)Nc1cc(C)ccn1 [Example 5, (R,E)-4-(4-amino-1-(1-(4-(cyclopropyl(methyl)amino)but-2-enoyl)pyrrolidin-3-yl)-1H-pyrazolo[3,4-d]pyrimidin-3-yl)-2-methoxy-N-(4-methylpyridin-2-yl)benzamide] was tested, and the IC50 [1] was less than 0.1 µM, the IC50 [2] was 1 to 10 µM and the IC50 [3] was 1 to 10 µM.
Cc1cnc(NC(=O)c2ccc(-c3nn([C@@H]4CCN(C(=O)/C=C/CN(C)C5CC5)C4)c4ncnc(N)c34)cc2)s1 [Example 6, (R,E)-4-(4-amino-1-(1-(4-(cyclopropyl(methyl)amino)but-2-enoyl)pyrrolidin-3-yl)-1H-pyrazolo[3,4-d]pyrimidin-3-yl)-N-(5-methylthiazol-2-yl)benzamide] gave an IC50 [1] of less than 0.1 µM, an IC50 [2] of 0.1 to 1 µM and an IC50 [3] of 1 to 10 µM.
CC(C)c1cnc(NC(=O)c2ccc(-c3nn([C@@H]4CCN(C(=O)/C=C/CN(C)C5CC5)C4)c4ncnc(N)c34)cc2)s1 [Example 8, (R,E)-4-(4-amino-1-(1-(4-(cyclopropyl(methyl)amino)but-2-enoyl)pyrrolidin-3-yl)-1H-pyrazolo[3,4-d]pyrimidin-3-yl)-N-(5-isopropylthiazol-2-yl)benzamide] gave an IC50 [1] of less than 0.1 µM, an IC50 [2] of less than 0.1 µM and an IC50 [3] of 0.1 to 1 µM.
For CCc1cnc(NC(=O)c2ccc(-c3nn([C@@H]4CCN(C(=O)/C=C/CN(C)C5CC5)C4)c4ncnc(N)c34)cc2)s1 [Example 9, (R,E)-4-(4-amino-1-(1-(4-(cyclopropyl(methyl)amino)but-2-enoyl)pyrrolidin-3-yl)-1H-pyrazolo[3,4-d]pyrimidin-3-yl)-N-(5-ethylthiazol-2-yl)benzamide], the IC50 [1] was less than 0.1 µM, the IC50 [2] was less than 0.1 µM and the IC50 [3] was 0.1 to 1 µM.
Compound CCCc1cnc(NC(=O)c2ccc(-c3nn([C@@H]4CCN(C(=O)/C=C/CN(C)C5CC5)C4)c4ncnc(N)c34)cc2)s1 [Example 10, (R,E)-4-(4-amino-1-(1-(4-(cyclopropyl(methyl)amino)but-2-enoyl)pyrrolidin-3-yl)-1H-pyrazolo[3,4-d]pyrimidin-3-yl)-N-(5-propylthiazol-2-yl)benzamide] has an IC50 [1] of less than 0.001 µM, an IC50 [2] of less than 0.1 µM and an IC50 [3] of 0.1 to 1 µM.
For CN(C/C=C/C(=O)N1CC[C@@H](n2nc(-c3ccc(C(=O)Nc4ncc(C(F)(F)F)s4)cc3)c3c(N)ncnc32)C1)C1CC1 [Example 11, (R,E)-4-(4-amino-1-(1-(4-(cyclopropyl(methyl)amino)but-2-enoyl)pyrrolidin-3-yl)-1H-pyrazolo[3,4-d]pyrimidin-3-yl)-N-(5-(trifluoromethyl)thiazol-2-yl)benzamide], the IC50 [1] was less than 0.1 µM, the IC50 [2] was less than 0.1 µM and the IC50 [3] was 0.1 to 1 µM.
CN(C/C=C/C(=O)N1CC[C@@H](n2nc(-c3ccc(C(=O)Nc4ncco4)cc3)c3c(N)ncnc32)C1)C1CC1 [Example 14, (R,E)-4-(4-amino-1-(1-(4-(cyclopropyl(methyl)amino)but-2-enoyl)pyrrolidin-3-yl)-1H-pyrazolo[3,4-d]pyrimidin-3-yl)-N-(oxazol-2-yl)benzamide] showed an IC50 [1] of less than 0.1 µM, an IC50 [2] greater than 10 µM and an IC50 [3] greater than 10 µM.
CN(C/C=C/C(=O)N1CC[C@@H](n2nc(-c3ccc(C(=O)Nc4ccccn4)cc3)c3c(N)ncnc32)C1)C1CC1 [Example 15, (R,E)-4-(4-amino-1-(1-(4-(cyclopropyl(methyl)amino)but-2-enoyl)pyrrolidin-3-yl)-1H-pyrazolo[3,4-d]pyrimidin-3-yl)-N-(pyridin-2-yl)benzamide] gave an IC50 [1] of less than 0.1 µM, an IC50 [2] of 1 to 10 µM and an IC50 [3] of 0.1 to 1 µM.
CN(C/C=C/C(=O)N1CC[C@@H](n2nc(-c3ccc(C(=O)Nc4cc(C#N)ccn4)cc3)c3c(N)ncnc32)C1)C1CC1 [Example 16, (R,E)-4-(4-amino-1-(1-(4-(cyclopropyl(methyl)amino)but-2-enoyl)pyrrolidin-3-yl)-1H-pyrazolo[3,4-d]pyrimidin-3-yl)-N-(4-cyanopyridin-2-yl)benzamide] gave an IC50 [1] of less than 0.1 µM, an IC50 [2] of 0.1 to 1 µM and an IC50 [3] of 1 to 10 µM.
Work on CN(C/C=C/C(=O)N1CC[C@@H](n2nc(-c3ccc(C(=O)Nc4cc(C5CC5)ccn4)cc3)c3c(N)ncnc32)C1)C1CC1 [Example 17, (R,E)-4-(4-amino-1-(1-(4-(cyclopropyl(methyl)amino)but-2-enoyl)pyrrolidin-3-yl)-1H-pyrazolo[3,4-d]pyrimidin-3-yl)-N-(4-cyclopropylpyridin-2-yl)benzamide] yielded an IC50 [1] of less than 0.001 µM, an IC50 [2] of 0.1 to 1 µM and an IC50 [3] of 1 to 10 µM.
Compound CC(C)c1ccnc(NC(=O)c2ccc(-c3nn([C@@H]4CCN(C(=O)/C=C/CN(C)C5CC5)C4)c4ncnc(N)c34)cc2)c1 [Example 18, (R,E)-4-(4-amino-1-(1-(4-(cyclopropyl(methyl)amino)but-2-enoyl)pyrrolidin-3-yl)-1H-pyrazolo[3,4-d]pyrimidin-3-yl)-N-(4-isopropylpyridin-2-yl)benzamide] has an IC50 [1] of less than 0.001 µM, an IC50 [2] of 0.1 to 1 µM and an IC50 [3] of 1 to 10 µM.
Work on CN(C)C/C=C/C(=O)N1CC[C@@H](n2nc(-c3ccc(C(=O)Nc4ccccn4)cc3)c3c(N)ncnc32)C1 [Example 30, (R,E)-4-(4-amino-1-(1-(4-(dimethylamino)but-2-enoyl)pyrrolidin-3-yl)-1H-pyrazolo[3,4-d]pyrimidin-3-yl)-N-(pyridin-2-yl)benzamide] yielded an IC50 [1] of less than 0.001 µM, an IC50 [2] of 0.1 to 1 µM and an IC50 [3] of 0.1 to 1 µM.
With CC(C)c1ccnc(NC(=O)c2ccc(-c3nn([C@@H]4CCN(C(=O)/C=C/CN(C)C)C4)c4ncnc(N)c34)cc2)c1 [Example 31, (R,E)-4-(4-amino-1-(1-(4-(dimethylamino)but-2-enoyl)pyrrolidin-3-yl)-1H-pyrazolo[3,4-d]pyrimidin-3-yl)-N-(4-isopropylpyridin-2-yl)benzamide] the IC50 [1] was less than 0.001 µM, the IC50 [2] was less than 0.1 µM and the IC50 [3] was 0.1 to 1 µM.
CN(C)C/C=C/C(=O)N1CC[C@@H](n2nc(-c3ccc(C(=O)Nc4cc(C#N)ccn4)cc3)c3c(N)ncnc32)C1 [Example 32, (R,E)-4-(4-amino-1-(1-(4-(dimethylamino)but-2-enoyl)pyrrolidin-3-yl)-1H-pyrazolo[3,4-d]pyrimidin-3-yl)-N-(4-cyanopyridin-2-yl)benzamide] gave an IC50 [1] of less than 0.001 µM, an IC50 [2] of 0.1 to 1 µM and an IC50 [3] of 0.1 to 1 µM.
